# Measured values: patent US10695341B2, “Compositions and methods for treating endometriosis” (UNIVERSITY OF SOUTH FLORIDA, priority 2014, dated 2020)
# How the values were obtained:
# [1] = tested on: life-extended human endometriotic cells; assay: CellTiter-glo survival assay, life-extended human endometriotic cells, HCQ; assay type: cell-based; settings: 25 μM HCQ, 5 days, cells from two different types of lesions, p<0.0001
# Description: Primary human endometriotic cells culture conditions and life extension have been previously described. These cells were derived from two different types of lesions (two independent patients) which were assessed separately as described below. Briefly, cells were maintained in MCDB 131:Medium 199 (1:1 ratio) supplemented with 8% FBS, penicillin/streptomycin, and insulin/transferrin/selenium (ITS). Cells were life-extended using SV40 Large T antigen. Retroviral particles generated in HEK293T were used to infect the primary cells. Media containing puromycin (2.5 μg/ml) was used to select primary cells resistant colonies. In addition, we obtained the T-HESC cell line, which are human endometrial stromal cells derived from a uterine myoma (ATCC, Manassas, Va.). This cell line was maintained in phenol red-free DMEM/F12 (1:1) containing 8% charcoal-dextran treated FBS, 500 ng/mL puromycin, 1% ITS+ Premix (BD Bioscience, San Jose, Calif.), and 15 mM HEPES. The cell lines used in the present study were tested to be mycoplasma negative and STR (short tandem repeat) profiled (Genetica DNA Laboratories, Cincinnati, Ohio). Endometriotic cells were seeded at 50,000 cells/well in a 24-well plate, whereas T-HESC cells were seeded at 250,000 cells/well in a 6-well plate. […] Cell viability was then assessed using CellTiter-glo reagent (Promega, Madison, Wis.).
# [2] = tested on: LC3B-II; assay: Western blot for LC3B, life-extended human endometriotic cells, HCQ; assay type: cell-based; settings: 25 μM HCQ, 18 hours
# [3] = tested on: ATG5 and ATG3 mRNA; assay: Real-time PCR of autophagic mediators in lesions; assay type: in vivo, C57BL/6 mice; settings: lesions of HCQ-treated vs PBS-treated mice
# Description: Total RNA was isolated using the RNeasy kit following the manufacturer's instructions (QIAGEN, Valencia, Calif.). RNA concentration and purity was determined using a 1000 NanoDrop (Thermo Scientific, Pittsburgh, Pa.). Lesion mass varied by samples, and this was reflected in the RNA amounts obtained (range of mass: 0.9 mg to 25 mg). Three RNA samples from uterine horns, having a 260/280 ratio higher than 1.8 and a 260/230 ratio higher than 1.7, were selected from recipient, donor, HCQ-treated, and PBS-treated animals (12 samples in total) for RT2-PCR analyses. Synthesis of cDNA was performed using 0.5 μg of total RNA, after DNA elimination step using the RT2 First Strand kit per manufacturer instructions (QIAGEN, Valencia, Calif.). After DNA elimination, the reaction mix was incubated at 42° C. for 15 min, followed by 95° C. for 5 min using a DNA Engine® Peltier Thermal cycler (Bio-Rad, Hercules, Calif.). A total of 102 μl of the cDNA reaction mix was added to the master mix containing 1,248 μl of RNAse-free water and 1,350 μl of 2× RT2 SYBR green master mix. Twenty-five μl of the master mix were carefully added to each well of the RT2 profiler PCR autophagy array. Quantification was performed using the Applied Biosystems cycler (Life Technologies, Grand Island, N.Y.). […] The PCR cycling program finalized with a melt curve analysis and data was analyzed using the QIAGEN web-based software.
# [4] = tested on: endometriotic lesions; assay: Induced murine endometriosis model, lesion count (Example 6); assay type: in vivo, C57BL/6 mice
# Description: To determine whether treatment with HCQ alters the formation of endometriotic lesions, an induced model of murine endometriosis in which mice receive injections of uterine horn fragments that develop into lesions within 2 weeks was utilized. Receipient (endometriosis-induced) mice were treated with 60 mg/kg HCQ21 or phosphate-buffered saline (PBS, FIG. 12). This treatment was repeated once every seven days post-induction. Mice that were neither injected with uterine horn fragments nor treated were used as controls (FIG. 39). All of the mice were euthanized at the same time (14 days after endometriosis induction for both the PBS and HCQ treatment groups). Ectopic lesions that developed in the recipient mice (white arrow, FIGS. 40A-40B) were counted, measured, and collected for RNA and protein analysis, as well as for histological staining. […] The majority (87.5%) of endometriosis-induced mice developed lesions. At the time of collection, we noted that the endometriotic lesions varied in size, color, and location across the treatment groups.
# Five-week-old C57BL/6 female mice were purchased from Jackson laboratories. All animals were maintained under standard 12 h photoperiod; food and water were available ad libitum throughout the study. […] Lesions were measured using a caliper. Volume of the lesions was calculated according to the formula: 4/3πr^2R.
smiles,measurement,setting,value
"CCN(CCO)CCCC(C)Nc1ccnc2cc(Cl)ccc12 (stereo not drawn) [HCQ, hydroxychloroquine]",cell survival of human endometriotic cells,[1],marked reduction
same,LC3B-II protein (western blot),[2],increased
same,ATG3 mRNA in lesions,[3]; p=0.0248,significant increase
same,ATG5 mRNA in lesions,[3]; p=0.0499,significant increase
same,number of lesions that developed vs PBS,"[4]; 60 mg/kg HCQ i.p., repeated after seven days, 14 days after induction, p=0.0007",significant reduction
same,total number of lesions in treatment group,"[4]; 60 mg/kg HCQ, n=25 mice (PBS: 46 lesions in n=24)",18
